Literature values as cited in US20110038945A1, “Orally ingestable medicament and method for treating a heartburn inducing event or an acid reflux episode in a living human subject” (priority 2009, published 2011).

For COc1cc(N)c(Cl)cc1C(=O)NC1CCN(CCCOc2ccc(F)cc2)CC1OC (centres unmarked) [cisapride], the deaths (included in the heart rhythm abnormality reports) is given as “more than 80 deaths” and the “reports of heart rhythm abnormalities” value (linked to the drug at recall from the U.S. market in 2000) is given as “more than 300 reports”.
